# Columns and labels:
# B2 bradykinin receptor = target: T1, B2 bradykinin receptor (Homo sapiens, UniProt P30411)
# T1 sequence (P30411 whole entry): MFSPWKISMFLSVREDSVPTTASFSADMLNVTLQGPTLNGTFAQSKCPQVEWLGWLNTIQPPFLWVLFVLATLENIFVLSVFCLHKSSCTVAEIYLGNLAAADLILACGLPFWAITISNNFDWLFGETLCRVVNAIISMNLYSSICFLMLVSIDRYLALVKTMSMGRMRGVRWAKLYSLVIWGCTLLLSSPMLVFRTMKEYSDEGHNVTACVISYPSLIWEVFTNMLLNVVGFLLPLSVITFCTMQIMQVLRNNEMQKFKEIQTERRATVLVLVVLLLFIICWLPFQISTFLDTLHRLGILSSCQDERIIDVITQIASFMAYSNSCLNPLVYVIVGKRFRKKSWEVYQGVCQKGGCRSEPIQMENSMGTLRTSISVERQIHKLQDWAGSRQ
# [1] = target: T2, Muscarinic acetylcholine receptor M1 (Homo sapiens, UniProt P11229); assay type: functional
# T2 sequence (P11229 whole entry): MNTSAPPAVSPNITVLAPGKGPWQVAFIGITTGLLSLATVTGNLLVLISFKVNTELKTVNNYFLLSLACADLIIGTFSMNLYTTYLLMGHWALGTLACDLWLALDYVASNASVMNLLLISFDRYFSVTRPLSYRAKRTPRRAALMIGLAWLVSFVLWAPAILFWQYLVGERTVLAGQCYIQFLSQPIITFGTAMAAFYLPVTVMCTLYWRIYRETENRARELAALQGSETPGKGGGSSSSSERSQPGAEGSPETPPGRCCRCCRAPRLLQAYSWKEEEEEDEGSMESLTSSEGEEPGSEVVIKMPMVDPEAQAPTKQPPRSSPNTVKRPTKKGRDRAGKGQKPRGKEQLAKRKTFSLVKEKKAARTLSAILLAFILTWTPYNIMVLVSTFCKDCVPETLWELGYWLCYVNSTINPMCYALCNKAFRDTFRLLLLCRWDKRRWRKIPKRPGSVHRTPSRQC
# Melanocortin receptor 3 = Melanocortin receptor 3 (Homo sapiens, UniProt P41968)
# [2] = target: Voltage-dependent L-type calcium channel subunit alpha-1C (Rattus norvegicus, UniProt P22002); assay type: functional
# [3] = target: T3, 5-hydroxytryptamine receptor 1A (Homo sapiens, UniProt P08908); assay type: functional, cell-based
# T3 sequence (P08908 whole entry): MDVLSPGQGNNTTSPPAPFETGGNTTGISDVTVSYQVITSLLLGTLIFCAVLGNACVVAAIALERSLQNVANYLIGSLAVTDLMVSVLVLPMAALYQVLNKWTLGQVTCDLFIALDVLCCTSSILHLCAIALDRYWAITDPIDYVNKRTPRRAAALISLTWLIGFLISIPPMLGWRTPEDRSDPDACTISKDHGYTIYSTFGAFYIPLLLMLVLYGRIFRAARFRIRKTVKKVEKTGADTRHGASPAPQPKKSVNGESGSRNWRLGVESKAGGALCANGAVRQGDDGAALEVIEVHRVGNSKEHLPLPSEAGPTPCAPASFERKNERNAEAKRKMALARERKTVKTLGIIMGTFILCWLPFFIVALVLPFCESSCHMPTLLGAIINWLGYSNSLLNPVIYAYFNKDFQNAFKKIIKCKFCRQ
# [4] = target: 5-hydroxytryptamine receptor 2B (Homo sapiens, UniProt P41595); assay type: functional, cell-based
# Histamine H1 receptor = Histamine H1 receptor (Homo sapiens, UniProt P35367)
# [5] = target: Voltage-gated inwardly rectifying potassium channel KCNH2 (Homo sapiens, UniProt Q12809); assay type: functional; conditions: read-out: AC50
# [6] = target: Sodium-dependent dopamine transporter (Homo sapiens, UniProt Q01959)
# [7] = target: Neuronal acetylcholine receptor subunit alpha-4 (Homo sapiens, UniProt P43681)
# [8] = target: T4, Prostaglandin G/H synthase 1 (Rattus norvegicus, UniProt Q63921); assay type: functional
# T4 sequence (Q63921 whole entry): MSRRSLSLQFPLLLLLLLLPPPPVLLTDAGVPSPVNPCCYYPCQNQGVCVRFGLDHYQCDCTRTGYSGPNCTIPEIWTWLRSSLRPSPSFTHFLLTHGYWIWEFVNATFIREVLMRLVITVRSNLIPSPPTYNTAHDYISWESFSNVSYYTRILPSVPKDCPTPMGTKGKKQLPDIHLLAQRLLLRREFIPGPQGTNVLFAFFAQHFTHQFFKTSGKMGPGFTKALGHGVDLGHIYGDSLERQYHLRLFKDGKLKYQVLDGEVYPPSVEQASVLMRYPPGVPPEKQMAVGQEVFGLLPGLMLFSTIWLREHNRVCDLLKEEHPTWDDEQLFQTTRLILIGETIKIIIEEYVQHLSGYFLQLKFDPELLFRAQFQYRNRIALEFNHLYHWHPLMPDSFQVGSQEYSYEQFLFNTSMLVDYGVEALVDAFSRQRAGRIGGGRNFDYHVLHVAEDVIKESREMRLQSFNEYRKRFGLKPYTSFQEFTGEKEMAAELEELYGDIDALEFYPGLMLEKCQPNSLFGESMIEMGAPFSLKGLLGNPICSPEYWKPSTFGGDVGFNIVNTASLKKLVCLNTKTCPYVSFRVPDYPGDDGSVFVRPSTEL
# [9] = target: Gamma-aminobutyric acid receptor subunit alpha-1 (Rattus norvegicus, UniProt P62813)
# Note: assay procedure not described here.
# Chain of Sodium-dependent dopamine transporter (Q01959 whole entry): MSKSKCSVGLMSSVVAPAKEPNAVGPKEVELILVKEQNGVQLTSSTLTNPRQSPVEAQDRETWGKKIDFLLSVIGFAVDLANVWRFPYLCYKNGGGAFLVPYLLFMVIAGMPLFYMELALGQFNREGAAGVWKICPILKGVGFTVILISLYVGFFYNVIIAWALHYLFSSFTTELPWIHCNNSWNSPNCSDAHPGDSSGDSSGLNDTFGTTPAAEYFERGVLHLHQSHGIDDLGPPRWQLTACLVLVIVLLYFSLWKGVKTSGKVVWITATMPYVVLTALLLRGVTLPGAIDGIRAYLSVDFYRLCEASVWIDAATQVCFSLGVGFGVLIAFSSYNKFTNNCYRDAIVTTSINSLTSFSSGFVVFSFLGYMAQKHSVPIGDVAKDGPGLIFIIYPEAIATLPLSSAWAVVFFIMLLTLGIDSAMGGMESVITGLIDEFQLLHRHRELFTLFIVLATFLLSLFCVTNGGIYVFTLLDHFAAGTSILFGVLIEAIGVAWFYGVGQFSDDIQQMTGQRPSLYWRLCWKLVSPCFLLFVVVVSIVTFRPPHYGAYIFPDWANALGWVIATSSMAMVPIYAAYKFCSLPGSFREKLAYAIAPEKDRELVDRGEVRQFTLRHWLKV
# Chain of 5-hydroxytryptamine receptor 2B (P41595 whole entry): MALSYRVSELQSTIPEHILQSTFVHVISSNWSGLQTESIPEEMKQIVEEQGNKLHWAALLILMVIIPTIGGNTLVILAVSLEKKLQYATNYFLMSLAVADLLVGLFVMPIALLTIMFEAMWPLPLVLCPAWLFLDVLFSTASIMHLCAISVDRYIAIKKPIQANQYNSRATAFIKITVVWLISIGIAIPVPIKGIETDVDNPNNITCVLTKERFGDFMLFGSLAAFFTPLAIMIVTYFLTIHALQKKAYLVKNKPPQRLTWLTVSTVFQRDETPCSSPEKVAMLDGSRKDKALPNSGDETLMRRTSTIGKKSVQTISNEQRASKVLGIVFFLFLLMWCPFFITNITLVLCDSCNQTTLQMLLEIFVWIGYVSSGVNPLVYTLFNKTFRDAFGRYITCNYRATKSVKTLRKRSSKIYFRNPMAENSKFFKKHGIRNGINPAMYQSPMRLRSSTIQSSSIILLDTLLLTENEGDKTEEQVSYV
# Chain of Histamine H1 receptor (P35367 whole entry): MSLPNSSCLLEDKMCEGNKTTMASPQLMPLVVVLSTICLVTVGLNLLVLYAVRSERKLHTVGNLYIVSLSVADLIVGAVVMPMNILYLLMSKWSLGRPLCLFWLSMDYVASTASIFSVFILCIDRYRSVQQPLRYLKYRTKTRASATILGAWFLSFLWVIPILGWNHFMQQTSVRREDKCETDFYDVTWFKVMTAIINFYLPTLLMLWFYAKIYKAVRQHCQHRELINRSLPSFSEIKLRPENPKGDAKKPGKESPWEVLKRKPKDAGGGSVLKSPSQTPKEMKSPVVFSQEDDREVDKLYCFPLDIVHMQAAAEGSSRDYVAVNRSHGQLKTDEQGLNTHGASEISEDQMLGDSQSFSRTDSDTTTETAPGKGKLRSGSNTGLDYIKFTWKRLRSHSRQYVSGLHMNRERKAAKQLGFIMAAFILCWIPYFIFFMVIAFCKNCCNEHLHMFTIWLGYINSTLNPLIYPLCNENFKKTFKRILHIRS
# Chain of Gamma-aminobutyric acid receptor subunit alpha-1 (P62813 whole entry): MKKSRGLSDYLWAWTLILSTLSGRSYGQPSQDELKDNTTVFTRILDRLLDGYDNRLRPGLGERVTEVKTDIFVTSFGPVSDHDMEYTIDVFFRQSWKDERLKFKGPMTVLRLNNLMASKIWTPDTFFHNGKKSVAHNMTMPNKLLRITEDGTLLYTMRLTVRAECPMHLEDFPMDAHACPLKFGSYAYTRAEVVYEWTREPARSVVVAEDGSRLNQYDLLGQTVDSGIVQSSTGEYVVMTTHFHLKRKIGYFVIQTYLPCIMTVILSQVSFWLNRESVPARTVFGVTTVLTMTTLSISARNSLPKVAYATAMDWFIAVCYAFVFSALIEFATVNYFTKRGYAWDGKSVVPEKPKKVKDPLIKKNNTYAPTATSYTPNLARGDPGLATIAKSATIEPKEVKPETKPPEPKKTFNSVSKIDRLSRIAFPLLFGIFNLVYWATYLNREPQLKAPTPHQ
# Chain of Voltage-gated inwardly rectifying potassium channel KCNH2 (Q12809 whole entry): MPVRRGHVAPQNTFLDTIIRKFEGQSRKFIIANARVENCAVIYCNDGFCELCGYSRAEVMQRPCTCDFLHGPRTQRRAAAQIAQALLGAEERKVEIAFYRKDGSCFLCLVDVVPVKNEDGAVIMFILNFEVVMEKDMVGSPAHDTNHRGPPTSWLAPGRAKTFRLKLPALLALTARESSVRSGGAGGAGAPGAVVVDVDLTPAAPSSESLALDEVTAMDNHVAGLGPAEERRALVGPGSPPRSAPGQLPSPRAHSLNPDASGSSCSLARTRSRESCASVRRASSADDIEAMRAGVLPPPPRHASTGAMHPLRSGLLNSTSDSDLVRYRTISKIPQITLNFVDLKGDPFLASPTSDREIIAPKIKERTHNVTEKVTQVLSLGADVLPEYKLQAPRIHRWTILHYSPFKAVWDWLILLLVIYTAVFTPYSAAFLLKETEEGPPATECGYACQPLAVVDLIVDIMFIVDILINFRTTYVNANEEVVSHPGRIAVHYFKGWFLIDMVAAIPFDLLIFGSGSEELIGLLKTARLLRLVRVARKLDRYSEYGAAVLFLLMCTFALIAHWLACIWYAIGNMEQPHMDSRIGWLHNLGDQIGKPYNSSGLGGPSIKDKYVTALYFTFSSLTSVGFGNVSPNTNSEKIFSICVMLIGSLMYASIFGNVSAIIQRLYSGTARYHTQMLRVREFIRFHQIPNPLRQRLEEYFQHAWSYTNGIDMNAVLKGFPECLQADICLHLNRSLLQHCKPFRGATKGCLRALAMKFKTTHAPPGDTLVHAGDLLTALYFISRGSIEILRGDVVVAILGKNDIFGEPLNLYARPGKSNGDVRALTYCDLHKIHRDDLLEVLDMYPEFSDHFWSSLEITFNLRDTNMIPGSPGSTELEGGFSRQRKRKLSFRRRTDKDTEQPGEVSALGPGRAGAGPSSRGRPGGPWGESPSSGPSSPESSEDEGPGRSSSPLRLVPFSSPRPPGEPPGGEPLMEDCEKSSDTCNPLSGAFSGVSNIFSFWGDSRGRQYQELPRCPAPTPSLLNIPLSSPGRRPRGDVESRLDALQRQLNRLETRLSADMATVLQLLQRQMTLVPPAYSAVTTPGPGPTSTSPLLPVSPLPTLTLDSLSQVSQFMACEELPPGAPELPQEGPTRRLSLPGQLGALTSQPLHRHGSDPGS
# Chain of Melanocortin receptor 3 (P41968 whole entry): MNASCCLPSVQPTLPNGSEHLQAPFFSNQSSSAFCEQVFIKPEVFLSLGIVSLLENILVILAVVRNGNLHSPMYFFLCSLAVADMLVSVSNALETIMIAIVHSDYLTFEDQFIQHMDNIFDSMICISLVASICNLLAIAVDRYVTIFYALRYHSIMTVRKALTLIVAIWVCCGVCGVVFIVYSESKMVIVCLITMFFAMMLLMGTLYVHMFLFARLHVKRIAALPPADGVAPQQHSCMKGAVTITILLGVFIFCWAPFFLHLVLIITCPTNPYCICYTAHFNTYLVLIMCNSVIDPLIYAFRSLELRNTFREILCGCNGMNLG
# Chain of Neuronal acetylcholine receptor subunit alpha-4 (P43681 whole entry): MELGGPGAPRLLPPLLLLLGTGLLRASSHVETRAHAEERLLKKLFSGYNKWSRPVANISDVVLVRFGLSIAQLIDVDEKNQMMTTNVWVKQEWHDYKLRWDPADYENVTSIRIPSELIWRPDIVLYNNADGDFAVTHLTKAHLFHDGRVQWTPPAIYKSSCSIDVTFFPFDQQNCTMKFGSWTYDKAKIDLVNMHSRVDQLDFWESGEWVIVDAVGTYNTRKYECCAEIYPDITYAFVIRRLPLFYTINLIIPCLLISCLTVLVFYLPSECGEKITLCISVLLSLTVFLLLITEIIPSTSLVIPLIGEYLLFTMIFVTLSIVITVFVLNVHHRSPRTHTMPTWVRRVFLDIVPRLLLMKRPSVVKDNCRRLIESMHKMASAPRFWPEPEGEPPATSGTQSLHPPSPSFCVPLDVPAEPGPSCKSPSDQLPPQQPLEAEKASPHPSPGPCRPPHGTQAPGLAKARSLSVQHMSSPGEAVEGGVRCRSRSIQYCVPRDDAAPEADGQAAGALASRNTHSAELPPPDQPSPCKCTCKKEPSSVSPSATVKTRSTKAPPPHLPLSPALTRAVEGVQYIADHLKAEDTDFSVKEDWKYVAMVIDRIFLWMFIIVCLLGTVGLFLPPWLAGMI
Compound,AC50 (B2 bradykinin receptor),AC50 [1],AC50 (Melanocortin receptor 3),AC50 [2],AC50 [3],AC50 [4],AC50 (Histamine H1 receptor),AC50 [5],AC50 [6],AC50 [7],AC50 [8],AC50 [9]
CCCC(C)C1(CC)C(=O)NC(=O)NC1=O (configuration not stated) [PENTOBARBITAL],> 10 µM,> 30 µM,> 10 µM,> 10 µM,> 10 µM,> 10 µM,> 30 µM,> 30 µM,> 10 µM,> 10 µM,> 10 µM,–
NCC[C@H](O)C(=O)N[C@@H]1C[C@H](N)[C@@H](O[C@H]2O[C@H](CN)[C@@H](O)[C@H](O)[C@H]2O)[C@H](O)[C@H]1O[C@H]1O[C@H](CO)[C@@H](O)[C@H](N)[C@H]1O [AMIKACIN],> 10 µM,–,> 10 µM,> 10 µM,> 10 µM,> 10 µM,–,> 30 µM,> 10 µM,> 10 µM,> 10 µM,> 10 µM
O=C(O)CCCCCCCC(=O)O [AZELAIC ACID],> 10 µM,> 10 µM,> 10 µM,> 10 µM,> 10 µM,> 10 µM,> 10 µM,> 30 µM,> 10 µM,> 10 µM,> 10 µM,> 10 µM
C[C@](N)(Cc1ccc(O)c(O)c1)C(=O)O [METHYLDOPA],> 10 µM,–,> 10 µM,> 10 µM,> 10 µM,> 10 µM,–,> 30 µM,> 10 µM,> 10 µM,> 30 µM,> 10 µM
CC(C)(C)c1cc(C(C)(C)C)c(NC(=O)c2c[nH]c3ccccc3c2=O)cc1O [IVACAFTOR],> 30 µM,> 10 µM,> 30 µM,> 10 µM,–,> 10 µM,> 10 µM,> 30 µM,11.2 µM,> 10 µM,> 30 µM,> 10 µM
C#C[C@]1(O)CC[C@H]2[C@@H]3CCC4=Cc5oncc5C[C@]4(C)[C@H]3CC[C@@]21C [DANAZOL],> 10 µM,–,> 10 µM,> 10 µM,> 10 µM,> 10 µM,–,> 30 µM,> 10 µM,> 10 µM,–,> 10 µM
Cc1ccc(S(=O)(=O)NC(=O)NN2CC3CCCC3C2)cc1 (configuration not stated) [GLICLAZIDE],> 10 µM,–,> 10 µM,> 10 µM,> 10 µM,> 10 µM,–,> 30 µM,> 10 µM,> 10 µM,> 10 µM,> 10 µM
C[C@]12CC[C@H]3[C@@H](CCC4=CC(=O)CC[C@@]43C)[C@@H]1CC[C@@H]2O [TESTOSTERONE],> 10 µM,–,> 10 µM,> 10 µM,> 10 µM,> 10 µM,–,–,> 10 µM,> 10 µM,> 10 µM,> 10 µM
CC(C)Cn1cnc2c(N)nc3ccccc3c21 [IMIQUIMOD],> 10 µM,–,> 30 µM,> 10 µM,> 10 µM,19 µM,–,28.3 µM,> 30 µM,> 10 µM,> 30 µM,> 10 µM

# Reference: ChEMBL document CHEMBL5291721, “A preclinical secondary pharmacology resource illuminates target-adverse drug reaction associations of marketed drugs” (Nat Commun, 2023)
